These results are taken from patent US10000452B1, “Quinolone-based compounds, formulations, and uses thereof” (University of South Florida, priority 2016, dated 2018).

The structures appear in SMILES notation. Values after ≈ are worked out from the molar mass of the structure shown. Values joined by “and” are separate entries in the source; they are usually repeats but may differ in a detail not shown here. Identical values can stand only once. Like-named read-outs stand apart in the source and are kept apart here.

For one data set, the system named is P. berghei-GFP parasites. As to the kind of experiment: modified Thompson test. It is filed as in vivo, P. berghei; mice. The conditions noted are these: for No. of Cures: survival to day 30 PI with parasitemia <1%; for day mice were sacrificed: Example 2: 10 mg/kg oral days 3, 4, 5, controls sacrificed day 13; for % inhibition on day 6 PE: Example 2: 10 mg/kg oral days 3, 4, 5 in HEC/Tween, Giemsa-stained smears. Here is the method:
Mice were infected with 1×10^6 P. berghei-GFP parasites and compounds were dosed orally on days 3, 4 and 5 PI with a dose of 10 mg/kg of compound suspended or dissolved in HEC/Tween or PEG 400. Parasitemia was observed by flow cytometry on days 3, 6, 9, 13, 21, and 30 PI. Compounds with animal survival up to day 30 PI and parasitemia levels of less than 1% on day 30 PI were considered to be cures. Lastly, animals with more than 40% parasitemia levels were euthanized.
On days 3, 6, 9, 13, 21, and 30 PE, parasitemia was monitored by Giemsa-stained blood smears. Both compounds were evaluated by the reduction of parasitemia on day 6 PE and the survival up to day 30 PE.

The subject of data set [1] is malarial strain TM90-C2B (mefloquine, chloroquine, atovaquone, and pyrimethamine-resistant). As to the kind of experiment: microbe, parasite or virus in culture. It is filed as cell-based, P. falciparum. The conditions noted are these: for EC50: Plasmodium falciparum. An excerpt:
Ideally, the RI of a compound should lie between 0.3 and 3.0 in order to avoid rapidly inducing resistance in the parasite. […]

For another data set, the system named is J774 mammalian cells. As to the kind of experiment: cytotoxicity to J774 cells. It is filed as cell-based. Conditions: Mus musculus. On the procedure: This allowed a simplified method for comparing the different assays being simultaneously run. Additionally, each compound was also tested for cytotoxicity using mammalian J774 cell lines in a 96-well plate format.^12-14, 16

The test system of a further data set is Pb-infected mice. The data set can be described thus: in vivo efficacy scouting assay against blood stages. Set-up: species or system P. berghei; mice. Conditions: for inhibition in vivo at 50 mg/kg: Plasmodium berghei, po, 144 h, read-out: % Inhibition Day 6 PI; for activities in these scout assays / % Inhibition Day 3 PI / % Inhibition Day 6 PI: single oral 50 mg/kg dose 1 day PI; for activities in these scout assays: result in words; for % Inhibition Day 3 PI / % Inhibition Day 6 PI: vs untreated animals. On the procedure:
The screening involved a single oral 50 mg/kg dose 1 day post infection (PI) and an assessment of parasitemia on days 3 PI and 6 PI (Table 6).
The screening was performed by treating two infected mice with a single 50 mg/kg oral dose of test compound suspended in PEG400 on day 1 postexposure (PE) followed by assessing parasitemia on days 3 and 6 PE.

The test system of data set [2] is P. berghei sporozoites expressing luciferase. The data set can be described thus: in vitro liver stage activity, luciferase sporozoites infecting HEPG2 hepatoma cells. It counts as cell-based. The conditions noted are these: Plasmodium berghei.
For data set [3], the system named is malarial strain W2 (pyrimethamine and chloroquine-resistant). As to the kind of experiment: in vitro antimalarial activity against multidrug resistant strain W2. It counts as cell-based, P. falciparum. The conditions noted are these: Plasmodium falciparum.
Data set [4] can be described thus: aqueous solubility (LC/MS- or HPLC-based assay). It counts as physicochemical. The method, boiled down:
(§1)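 Aqueous solubility and log D (pH 7.4) determined by LC/MS-based assays; solubility examined at more than one pH.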

Data set [5] is described as follows: lipophilicity log D at pH 7.4. It counts as physicochemical. The conditions noted are these: octanol/water. The method, boiled down: as §1
Data set [6] concerns the target P. berghei sporozoites expressing luciferase. The conditions noted are these: previous work; read-out: liver stage activity; cited from earlier work.
Data set [7] deals with malarial strain TM90-C2B (mefloquine, chloroquine, atovaquone, and pyrimethamine-resistant). Conditions: previous work; cited from earlier work.
[8] abbreviates: 10 mg/kg oral on days 3, 4 and 5 PI.
Where [9] appears, read: Example 2: two mice, single 50 mg/kg oral dose in PEG400 on day 1 PE.
Where [10] appears, read: TM90, read-out: EC50 TM90-C2B (nM).
Setting [11] is: aqueous solution, pH 2, simulated gastric fluid, pH 2.0, read-out: Solubility pH 2.0.
[12] abbreviates: aqueous solution, pH 6.5, aqueous buffer, pH 6.5, read-out: Solubility pH 6.5.
The mark [13] stands for this setting: aqueous solution (buffer not named), pH 2, simulated gastric fluid, pH 2.0, read-out: Solubility pH 2.0.
Where [14] appears, read: aqueous solution (buffer not named), pH 6.5, aqueous buffer, pH 6.5, read-out: Solubility pH 6.5.
[15] abbreviates: 10 mg/kg oral on days 3, 4 and 5 PI, vs untreated control animals.

For the compound `O=C1C(O)=C([C@H]2CC[C@H](c3ccc(Cl)cc3)CC2)C(=O)c2ccccc21` [Atovaquone, atovaquone, reference compound], the “No. of Cures” value with P. berghei-GFP parasites (setting [8]) is listed as 5/5. The EC50 in [1] (TM90, read-out: EC50 TM90-C2B) is 18400 nM; in the data set on J774 mammalian cells (J774, cytotoxicity, 96 well plate format, read-out: EC50 J774), 28.3 µM.
With `CCCCc1cc2c(=O)c(C(=O)OC)c[nH]c2cc1OCCOc1ccccc1` [Compound 6b, Methyl 6-Butyl-4-oxo-7-(2-phenoxyethoxy)-1,4-dihydroquinoline-3-carboxylate, reference compound], in the data set with Pb-infected mice (setting [9]), the “% inhibition on day 3 PE” value worked out at 76.9%. The “% inhibition on day 6 PE” value with Pb-infected mice (setting [9]) is 49%; in the data set with P. berghei-GFP parasites, “no inhibition”. Also, the EC50 in data set [2] (HepG2, text values printed in pM) turned out to be 52 pM; in [1] (setting [10]) it was 7.89 nM; in data set [3] (read-out: EC50 W2), 0.039 nM. Moreover, in the data set with P. berghei-GFP parasites, the “day mice were sacrificed” value worked out at 13.
Usually solubility stands for the concentration that dissolves in the medium under given conditions. Broadly, the chromatographic logD is a lipophilicity value derived from retention on a column. Read a high chromatographic logD as a more lipophilic compound. `COC(=O)c1c[nH]c2cc(CN3CCN(c4ccc(C(F)(F)F)cc4)CC3)c(OC)cc2c1=O` [Compound 8ab, Methyl 6-methoxy-4-oxo-7-((4-(4-(trifluoromethyl)phenyl)piperazin-1-yl)methyl)-1,4-dihydroquinoline-3-carboxylate]: in the data set on Pb-infected mice, the inhibition in vivo at 50 mg/kg was greater than 85%, the “activities in these scout assays” value is reported as “excellent activities”, the “% Inhibition Day 3 PI” value was “full inhibition” and the “% Inhibition Day 6 PI” value is listed as “completely inhibited parasite growth”. In addition, in data set [4] (setting [11]), the solubility is 1 to 19.9 µM (≈ 0.475 to 9.46 µg/mL). For the same compound, in [4] (setting [12]), the solubility lay in the range of 1 to 19.9 µM (≈ 0.475 to 9.46 µg/mL). Moreover, the EC50 in data set [2] (HEPG2 cells) came to 9580 pM. In addition, the chromatographic logD in data set [5] turned out to be 1.29. Besides, in the data set with P. berghei-GFP parasites (setting [8]), the “No. of Cures” value is 3 of the 5 and 3/5. Also, in the data set on J774 mammalian cells (J774, read-out: EC50 J774 (μM)), the EC50 is greater than 20 µM. The EC50 in data set [3] (read-out: EC50 W2 (nM)) came out at 6.42 nM.
In the case of `O=c1c(Br)c[nH]c2cc(CN3CCN(c4ccc(F)cc4)CC3)ccc12` [Compound 8ak, 3-Bromo-7-((4-(4-fluorophenyl)piperazin-1-yl)methyl) quinolin-4(1H)-one], the solubility in data set [4] (setting [13]) is no less than 80 µM; in data set [4] (setting [14]), 20 to 39.9 µM (≈ 8.33 to 16.6 µg/mL). The EC50 was 858 pM in data set [2] (HEPG2 cells); 2430 nM in [1] (setting [10]); greater than 20 µM in the data set on J774 mammalian cells (J774, read-out: EC50 J774 (μM)); 812 nM in [3] (read-out: EC50 W2 (nM)). The compound further gave a chromatographic logD in data set [5] of 2.91. In addition, the “No. of Cures” value in the data set with P. berghei-GFP parasites (setting [8]) is 0/5. In the data set with P. berghei-GFP parasites (setting [15]), the “% Inhibition Day 6 PI” value was “low inhibition”.
For `Cc1[nH]c2cc(CN3CCN(c4ccc(F)cc4)CC3)ccc2c(=O)c1Br` [Compound 8an, 3-Bromo-7-((4-(4-fluorophenyl)piperazin-1-yl)methyl)-2-methylquinolin-4(1H)-one], in the data set with Pb-infected mice, the inhibition in vivo at 50 mg/kg was greater than 85%, the “activities in these scout assays” value is “excellent activities”, the “% Inhibition Day 3 PI” value is recorded as “full inhibition” and the “% Inhibition Day 6 PI” value is “completely inhibited parasite growth”. Besides, the solubility in data set [4] (setting [13]) is no less than 80 µM. For the same compound, the solubility in data set [4] (setting [14]) fell in the range of 1 to 19.9 µM (≈ 0.43 to 8.56 µg/mL). The EC50 in data set [2] (HEPG2 cells) was determined as 26200 pM. In [5], the chromatographic logD came out at 2.83. In addition, in the data set on P. berghei-GFP parasites (setting [8]), the “Avg. Day of Death” value is given as 13 and the “No. of Cures” value is 0/5. In addition, in the data set on P. berghei-GFP parasites (Plasmodium berghei, in Mus musculus, 144 h, 10 mg/kg oral on days 3, 4 and 5 PI, vs untreated control animals, read-out: % Inhibition Day 6 PI), the inhibition in vivo at 10 mg/kg came out at 90.9%. Moreover, the EC50 in data set [1] (setting [10]) is 25.5 nM. For the same compound, in the data set on J774 mammalian cells (J774, read-out: EC50 J774 (μM)), the EC50 was greater than 20 µM. The EC50 in data set [3] (read-out: EC50 W2 (nM)) was determined as 25.1 nM.
Regarding `Cc1[nH]c2cc(CN3CCN(c4ccc(F)cc4)CC3)ccc2c(=O)c1Cl` [Compound 8ao, 3-Chloro-7-((4-(4-fluorophenyl)piperazin-1-yl)methyl)-2-methylquinolin-4(1H)-one], the solubility in data set [4] (setting [13]) is no less than 80 µM; in data set [4] (setting [14]) it was 1 to 19.9 µM (≈ 0.386 to 7.68 µg/mL). In [5], this compound registered a chromatographic logD of 2.73. Also, the “No. of Cures” value with P. berghei-GFP parasites (setting [8]) is recorded as 0/5. In the data set with P. berghei-GFP parasites (setting [15]), the “% Inhibition Day 6 PI” value was “low inhibition”. Also, the EC50 in [1] (setting [10]) is 52.1 nM; in the data set with J774 mammalian cells (J774, read-out: EC50 J774 (μM)) it was greater than 20 µM; in data set [3] (read-out: EC50 W2 (nM)), 38.5 nM.
Take `COC(=O)c1c[nH]c2cc(CN3CCN(c4ccc(C(F)(F)F)cc4)CC3)c(C)cc2c1=O` [Compound 8v, Methyl 6-methyl-4-oxo-7-((4-(4-(trifluoromethyl)phenyl)piperazin-1-yl)methyl)-1,4-dihydroquinoline-3-carboxylate]: the inhibition in vivo at 50 mg/kg in the data set with Pb-infected mice is greater than 85%. Besides, the “activities in these scout assays” value in the data set on Pb-infected mice is given as “excellent activities”. In addition, the “% Inhibition Day 3 PI” value in the data set with Pb-infected mice is reported as “full inhibition”. For the same compound, the “% Inhibition Day 6 PI” value in the data set on Pb-infected mice is on record as “completely inhibited parasite growth”. The solubility in [4] (setting [11]) was no less than 80 µM; in [4] (setting [12]) it was 1 to 19.9 µM (≈ 0.459 to 9.14 µg/mL). Besides, the chromatographic logD in data set [5] is 3.73. Also, in the data set with P. berghei-GFP parasites (setting [8]), the “No. of Cures” value is 3 of the 5 and 3/5. The EC50 in data set [1] (setting [10]) was 101 nM; in the data set on J774 mammalian cells (J774, read-out: EC50 J774 (μM)), greater than 20 µM; in [3] (read-out: EC50 W2), 0.066 nM; in [3] (read-out: EC50 W2 (nM)) it was 0.066 nM. The RI in data set [1] (RI = EC50 TM90-C2B/EC50 W2) was 1530.
On to `CCCCc1cc2c(=O)c(Br)c(C)[nH]c2cc1OCCOc1ccccc1` [Compound 16c, 3-Bromo-6-butyl-2-methyl-7-(2-phenoxyethoxy)quinolin-4(1H)-one], for which the results for the “% inhibition on day 6 PE” value with Pb-infected mice (setting [9]) and in the data set with P. berghei-GFP parasites were 49.5% and 61%, respectively. For the same compound, the EC50 was 2.12 nM in [6], 12.2 nM in data set [1] (setting [10]) and 2.6 nM in data set [3] (read-out: EC50 W2 (nM)). Besides, the “fold more soluble in comparison to 6b” value in data set [4] (Example 2) was “approximately 10”. Moreover, the “day mice were sacrificed” value in the data set with P. berghei-GFP parasites is reported as 13. Also, the “resistance index (RI)” value in [7] is 4.69.
